Here are results for one compound from patent US20250049930A1, “PROTAC MOLECULES TARGETING FOXP3 AND USES THEREOF” (CEDARS-SINAI MEDICAL CENTER, priority 2022, published 2025).

The test system of this experiment is CD4+ and CD8+ lymphocytes. Briefly: Ex vivo restimulation of splenocytes/lymph nodes from treated tumor-bearing mice with CA9 peptide, flow cytometry. It counts as in vivo, Balb/C mice. The settings on record: spleen and lymph nodes harvested on day 28, restimulated ex vivo with CA9 peptide. As for the experimental part: FIGS. 4A-4D depict that PF enhanced the antitumor immunity provided by αPD1 or mTOR inhibition in mice. Mice tumors were established by injecting RENCA-CA9 cells subcutaneously in the flank (day 0) of Balb/C mice (6-8 mice per group). PF was administered i.p., twice a week, throughout the experiment, starting on day 10 (FIGS. 4A and 4C). αPD1 was administered i.p., twice a week, throughout the experiment, starting on days 5 (FIG. 4A). Splenocytes were harvested, and restimulated ex vivo with mouse CA9 peptide. The splenocytes were assessed by flow cytometry for Granzyme B, IFNγ or TNFα after gating on CD4 or CD8 (FIG. 4B). In a similar mouse tumor growth experiment, temsirolimus was administered i.p. on day 10, every other day, for 14 days (FIG. 4C). Similar to FIG. 4B, splenocytes were harvested, restimulated and analyzed (FIG. 4D). Representative results are shown for experiments conducted at least twice. […]
FIGS. 6A-6C depict that PF enhances immune activation and CD8+ memory lymphocyte formation. […] Spleen and lymph nodes were harvested on day 28 and restimulated ex vivo with CA9 peptide and assessed by flow cytometry (FIGS. 6B and 6C). CD8+ lymphocytes treated with PF had increased activation as measured by IFNγ or TNFα (FIG. 6B). […]
To assess T cells in mice, CD4+ FoxP3+ cells from serial peripheral blood draws were assessed by flow cytometry. […]

Residues, ends and D or L forms follow the SMILES beside them. *: point of attachment. X1 = O=C1CCC(N2C(=O)c3cccc(*)c3C2=O)C(=O)N1; PEG4 = NCCOCCOCCOCCOCCC(=O)O

As to `CSCC[C@H](NC(=O)[C@H](C)NC(=O)[C@H](Cc1ccccc1)NC(=O)[C@H](Cc1ccccc1)NC(=O)[C@@H]1CCCN1C(=O)[C@H](Cc1c[nH]c2ccccc12)NC(=O)[C@H](CCSC)NC(=O)[C@H](CCCCN)NC(=O)[C@H](CCCNC(=N)N)NC(=O)[C@H](Cc1ccccc1)NC(=O)[C@H](CO)NC(=O)[C@H](CCC(N)=O)NC(=O)[C@H](Cc1ccccc1)NC(=O)[C@H](CC(=O)O)NC(=O)[C@H](CCCNC(=N)N)NC(=O)CCOCCOCCOCCOCCNc1cccc2c1C(=O)N(C1CCC(=O)NC1=O)C2=O)C(=O)O` (stereo partly shown) [PF, Pomalidomide-PEG4-RDFQSFRKMWPFFAM] ({X1-PEG4}-RDFQSFRKMWPFFAM-OH), the “memory markers (CD62L, CD44 and Eomes) in CD8+ cells” value is “displayed a memory phenotype with increase in CD62L, CD44 and Eomes expression”.
